# In ChEMBL document CHEMBL1201862, “PubChem BioAssay data set” (2004):
#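 Compound exposure: 48 hours, 5 concentrations, 96-well plates. Here, GI50 denotes the concentration required for 50% inhibition of growth.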 Active and inactive are the calls of the source. Rule as the data show it: active = GI50 up to about 1.1 µM and inactive = higher.
# Key:
# Assay in all cases: DTP human tumour cell line panel, 48 h
# IGROV-1 = system: IGROV-1
# TK-10 = system: TK-10
# OVCAR-5 = system: OVCAR-5
# NCI-H460 = system: NCI-H460
# HOP-92 = system: HOP-92
# KM-20L2 = system: KM-20L2
# LXFL 529 = system: LXFL 529
# LOX IMVI = system: LOX IMVI
# SR = system: SR
# SNB-75 = system: SNB-75
# RPMI-8226 = system: RPMI-8226
# ACHN = system: ACHN
# HCC 2998 = system: HCC 2998
# M14 = system: M14
# NCI-H522 = system: NCI-H522
# NCI-H23 = system: NCI-H23
# SNB-78 = system: SNB-78
# SF-295 = system: SF-295
# CAKI-1 = system: CAKI-1
# RXF 631 = system: RXF 631
# SF-539 = system: SF-539
# SK-MEL-28 = system: SK-MEL-28
# HOP-18 = system: HOP-18
# DMS-273 = system: DMS-273
# OVCAR-8 = system: OVCAR-8
# UACC-257 = system: UACC-257
# A498 = system: A498
# MOLT-4 = system: MOLT-4
# U-251 = system: U-251
# 786-0 = system: 786-0
# SF-268 = system: SF-268
# OVCAR-3 = system: OVCAR-3
# COLO 205 = system: COLO 205
# HT-29 = system: HT-29
# SK-OV-3 = system: SK-OV-3
# SK-MEL-5 = system: SK-MEL-5
# HOP-62 = system: HOP-62
# RXF 393 = system: RXF 393
# M19-MEL = system: M19-MEL
# UO-31 = system: UO-31
# HCT-15 = system: HCT-15
# NCI-H226 = system: NCI-H226
# DLD-1 = system: DLD-1
# SN12C = system: SN12C
# UACC-62 = system: UACC-62
# SK-MEL-2 = system: SK-MEL-2
# CCRF-CEM = system: CCRF-CEM
# SW-620 = system: SW-620
# OVCAR-4 = system: OVCAR-4
# HCT-116 = system: HCT-116
# KM12 = system: KM12
# K562 = system: K562
# A549 = system: A549
# Malme-3M = system: Malme-3M
# SNB-19 = system: SNB-19
# EKVX = system: EKVX
# DMS-114 = system: DMS-114
# XF498 = system: XF498
structure (smiles),measurement,setting,value
C[N+](C)(C)CC1CCCCC1O (stereo not drawn),GI50,IGROV-1,> 100 µM (inactive)
same,GI50,TK-10,> 100 µM (inactive)
same,GI50,OVCAR-5,> 100 µM (inactive)
same,GI50,NCI-H460,> 100 µM (inactive)
same,GI50,HOP-92,> 100 µM (inactive)
same,GI50,KM-20L2,> 100 µM (inactive)
same,GI50,LXFL 529,> 100 µM (inactive)
same,GI50,LOX IMVI,> 100 µM (inactive)
same,GI50,SR,> 100 µM (inactive)
same,GI50,SNB-75,> 100 µM (inactive)
same,GI50,RPMI-8226,> 100 µM (inactive)
same,GI50,ACHN,> 100 µM (inactive)
same,GI50,HCC 2998,> 100 µM (inactive)
same,GI50,M14,> 100 µM (inactive)
same,GI50,NCI-H522,63 µM (inactive)
same,GI50,NCI-H23,> 100 µM (inactive)
same,GI50,SNB-78,> 100 µM (inactive)
same,GI50,SF-295,> 100 µM (inactive)
same,GI50,CAKI-1,> 100 µM (inactive)
same,GI50,RXF 631,> 100 µM (inactive)
same,GI50,SF-539,> 100 µM (inactive)
same,GI50,SK-MEL-28,> 100 µM (inactive)
same,GI50,HOP-18,1.28 µM (inactive)
same,GI50,DMS-273,> 100 µM (inactive)
same,GI50,OVCAR-8,> 100 µM (inactive)
same,GI50,UACC-257,> 100 µM (inactive)
same,GI50,A498,> 100 µM (inactive)
same,GI50,MOLT-4,> 100 µM (inactive)
same,GI50,U-251,> 100 µM (inactive)
same,GI50,786-0,> 100 µM (inactive)
same,GI50,SF-268,> 100 µM (inactive)
same,GI50,OVCAR-3,> 100 µM (inactive)
same,GI50,COLO 205,> 100 µM (inactive)
same,GI50,HT-29,> 100 µM (inactive)
same,GI50,SK-OV-3,> 100 µM (inactive)
same,GI50,SK-MEL-5,> 100 µM (inactive)
same,GI50,HOP-62,> 100 µM (inactive)
same,GI50,RXF 393,> 100 µM (inactive)
same,GI50,M19-MEL,> 100 µM (inactive)
same,GI50,UO-31,> 100 µM (inactive)
same,GI50,HCT-15,> 100 µM
same,GI50,NCI-H226,> 100 µM (inactive)
same,GI50,DLD-1,> 100 µM (inactive)
same,GI50,SN12C,> 100 µM (inactive)
same,GI50,UACC-62,> 100 µM (inactive)
same,GI50,SK-MEL-2,> 100 µM (inactive)
same,GI50,CCRF-CEM,> 100 µM (inactive)
same,GI50,SW-620,> 100 µM (inactive)
same,GI50,OVCAR-4,> 100 µM (inactive)
same,GI50,HCT-116,> 100 µM (inactive)
CS(=O)(=O)c1c(N)c2nc(Cl)cn2c2nc3ccccc3nc12,GI50,IGROV-1,> 100 µM (inactive)
same,GI50,KM12,> 100 µM (inactive)
same,GI50,OVCAR-5,> 100 µM (inactive)
same,GI50,NCI-H460,> 100 µM (inactive)
same,GI50,KM-20L2,> 100 µM (inactive)
same,GI50,LXFL 529,> 100 µM (inactive)
same,GI50,LOX IMVI,> 100 µM (inactive)
same,GI50,K562,> 100 µM (inactive)
same,GI50,SR,> 100 µM (inactive)
same,GI50,SNB-75,81.3 µM (inactive)
same,GI50,RPMI-8226,> 100 µM (inactive)
same,GI50,ACHN,> 100 µM (inactive)
same,GI50,HCC 2998,> 100 µM (inactive)
same,GI50,M14,> 100 µM (inactive)
same,GI50,NCI-H522,48 µM (inactive)
same,GI50,NCI-H23,68.9 µM (inactive)
same,GI50,SNB-78,> 100 µM (inactive)
same,GI50,SF-295,> 100 µM (inactive)
same,GI50,CAKI-1,> 100 µM (inactive)
same,GI50,RXF 631,> 100 µM (inactive)
same,GI50,SF-539,> 100 µM (inactive)
same,GI50,SK-MEL-28,> 100 µM (inactive)
same,GI50,A549,> 100 µM (inactive)
same,GI50,DMS-273,> 100 µM (inactive)
same,GI50,OVCAR-8,57.8 µM (inactive)
same,GI50,UACC-257,> 100 µM (inactive)
same,GI50,Malme-3M,> 100 µM (inactive)
same,GI50,MOLT-4,> 100 µM (inactive)
same,GI50,U-251,> 100 µM (inactive)
same,GI50,786-0,62.4 µM (inactive)
same,GI50,SF-268,> 100 µM (inactive)
same,GI50,OVCAR-3,> 100 µM (inactive)
same,GI50,COLO 205,> 100 µM (inactive)
same,GI50,HT-29,> 100 µM (inactive)
same,GI50,SK-OV-3,> 100 µM (inactive)
same,GI50,SK-MEL-5,> 100 µM (inactive)
same,GI50,HOP-62,> 100 µM (inactive)
same,GI50,M19-MEL,> 100 µM (inactive)
same,GI50,SNB-19,> 100 µM (inactive)
same,GI50,UO-31,> 100 µM (inactive)
same,GI50,EKVX,> 100 µM (inactive)
same,GI50,HCT-15,> 100 µM
same,GI50,NCI-H226,> 100 µM (inactive)
same,GI50,DLD-1,> 100 µM (inactive)
same,GI50,SN12C,> 100 µM (inactive)
same,GI50,DMS-114,> 100 µM (inactive)
same,GI50,XF498,> 100 µM (inactive)
same,GI50,UACC-62,> 100 µM (inactive)
same,GI50,SK-MEL-2,> 100 µM (inactive)
same,GI50,CCRF-CEM,> 100 µM (inactive)
same,GI50,SW-620,> 100 µM (inactive)
same,GI50,OVCAR-4,> 100 µM (inactive)
same,GI50,HCT-116,> 100 µM (inactive)
